According to US9856263B2, “Heteroaromatic compounds and their use as dopamine D1 ligands” (PFIZER INC., priority 2014, dated 2018):

Each molecule was assayed against Human D1 Receptor (Homo sapiens (Human), UniProt P21728) (assay: Human D1 receptor binding assay ([3H]-SCH23390 competition binding)). Details: over-expressing LTK human cell lines; 0.5 nM [3H]-SCH23390; 30 min at 37° C.; footnote a = single determination, b = geometric mean of ≧5 determinations.
Experimental: D1 binding assays were performed using over-expressing LTK human cell lines. […] These ligand and tissue concentrations were used in time course studies to determine linearity and equilibrium conditions for binding. […] The pellet was resuspended in assay buffer [50 mM Tris (pH 7.4@ RT) containing 4 mM MgSO4 and 0.5 mM EDTA]. […] Non-specific binding was determined by radioligand binding in the presence of a saturating concentration of (+)-Butaclamol (10 μM), a D1 antagonist After a 30 minute incubation period at 37° C., assay samples were rapidly filtered through Unifilter-96 GF/B PEI-coated filter plates and rinsed with 50 mM Tris buffer (pH 7.4 at 4° C.). […] Ki values were calculated according to the Cheng-Prusoff equation: […]

Sequence of Human D1 Receptor (P21728 whole entry): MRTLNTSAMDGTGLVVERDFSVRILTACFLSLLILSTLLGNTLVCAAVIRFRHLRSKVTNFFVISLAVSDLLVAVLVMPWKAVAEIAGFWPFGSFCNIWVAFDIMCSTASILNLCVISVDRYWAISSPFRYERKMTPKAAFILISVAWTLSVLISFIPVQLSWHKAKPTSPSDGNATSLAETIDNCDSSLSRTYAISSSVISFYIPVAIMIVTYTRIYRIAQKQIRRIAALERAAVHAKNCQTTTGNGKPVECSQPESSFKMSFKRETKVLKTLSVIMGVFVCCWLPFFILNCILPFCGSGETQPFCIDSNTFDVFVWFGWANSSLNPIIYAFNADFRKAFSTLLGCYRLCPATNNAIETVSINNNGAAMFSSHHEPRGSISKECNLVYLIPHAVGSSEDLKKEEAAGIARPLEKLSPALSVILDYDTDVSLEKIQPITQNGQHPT

Row | Ki | Structure (SMILES)
1 | 63.9 nM | Cc1ncnc(C)c1-c1ccc(Oc2nccn3cccc23)cc1C#N [Example 10, 2-(4,6-dimethylpyrimidin-5-yl)-5-(pyrrolo[1,2-a]pyrazin-1-yloxy)benzonitrile]

Same assay, conditions: read-out: Human D1 Receptor Binding, Ki (nM); Geometric mean of 2-4 determinations (unless otherwise indicated); over-expressing LTK human cell lines; 0.5 nM [3H]-SCH23390; 30 min at 37° C.; footnote a = single determination, b = geometric mean of ≧5 determinations

Row | Ki | Structure (SMILES)
2 | 107 nM | Cc1cc(Oc2nccn3nccc23)ccc1-c1c(C)ncc2nccn12 [Example 8, 6-methyl-5-[2-methyl-4-(pyrazolo[1,5-a]pyrazin-4-yloxy)phenyl](8-^2H)imidazo[1,2-a]pyrazine]
3 | 1150 nM | Cc1cc(Oc2ncnn3cccc23)ccc1-c1c(C)nc2ncccn12 [Example 18, 4-[3-methyl-4-(2-methylimidazo[1,2-a]pyrimidin-3-yl)phenoxy]pyrrolo[2,1-f][1,2,4]triazine]
4 | 116 nM | Cc1ncnc(C)c1-c1ccc(Oc2ncnn3cccc23)c(F)c1C [Example 32, 4-[4-(4,6-dimethylpyrimidin-5-yl)-2-fluoro-3-methylphenoxy]pyrrolo[2,1-f][1,2,4]triazine]
5 | 198 nM | Cc1cc(Oc2nccn3cccc23)ccc1-c1c(C)nnc2nccn12 [Example 28, 3-methyl-4-[2-methyl-4-(pyrrolo[1,2-a]pyrazin-1-yloxy)phenyl]imidazo[2,1-c][1,2,4]triazine]
6 | 514 nM | Cc1ncnc(C)c1-c1ccc(Oc2nccn3nccc23)cc1 [Example 7, 4-[4-(4,6-dimethylpyrimidin-5-yl)phenoxy]pyrazolo[1,5-a]pyrazine]
7 | 252 nM | Cc1ncnc(C)c1-c1ccc(Oc2ncnn3cccc23)c(F)c1 [Example 33, 4-[4-(4,6-dimethylpyrimidin-5-yl)-2-fluorophenoxy]pyrrolo[2,1-f][1,2,4]triazine]
8 | 28.1 nM | COc1cc(Oc2nccn3cccc23)ccc1-c1c(C)cnnc1C [Example 27, 1-[4-(3,5-dimethylpyridazin-4-yl)-3-methoxyphenoxy]pyrrolo[1,2-a]pyrazine]
9 | 86.1 nM | Cc1ncnc(C)c1-c1cc(F)c(Oc2nccn3cccc23)cc1F [Example 26, 1-[4-(4,6-dimethyipyrimidin-5-yl)-2,5-difluorophenoxy]pyrrolo[1,2-a]pyrazine]
10 | > 6400 nM | Cc1cc(Oc2ccnc3ccnn23)ccc1-c1c(C)ncnc1C [Example 40, 7-[4-(4,6-dimethylpyrimidin-5-yl)-3-methylphenoxy]pyrazolo[1,5-a]pyrimidine]
11 | 35.8 nM | Cc1cc(Oc2ncnn3cccc23)ccc1-c1c(C)cnnc1C [Example 9, 4-[4-(3,5-dimethylpyridazin-4-yl)-3-methylphenoxy]pyrrolo[2,1-f][1,2,4]triazine]
12 | 61.3 nM | Cc1cc(Oc2nccn3nccc23)ccc1-c1c(C)ncnc1C [Example 6, 4-[4-(4,6-dimethylpyrimidin-5-yl)-3-methylphenoxy]pyrazolo[1,5-a]pyrazine]
13 | 672 nM | COc1cc(Oc2ncnn3cccc23)ccc1-c1c(C)ncnc1C [Example 19, 4-[4-(4,6-dimethylpyrimidin-5-yl)-3-methoxyphenoxy]pyrrolo[2,1-f][1,2,4]triazine]
14 | 18.8 nM | Cc1n[nH]c(=O)c(C)c1-c1ccc(Oc2nccn3cccc23)cc1 [Example 14, 4,6-dimethyl-5-[4-(pyrrolo[1,2-a]pyrazin-1-yloxy)phenyl]pyridazin-3(2H)-one]
15 | 59.3 nM | Cc1ncnc(C)c1-c1ccc(Oc2nccn3cccc23)cc1F [Example 20, 1-[4-(4,6-dimethylpyrimidin-5-yl)-3-fluorophenoxy]pyrrolo[1,2-a]pyrazine]
16 | 31.2 nM | Cc1cc(Oc2ncnn3cccc23)ccc1-c1c(C)ncc(=O)n1C [Example 39, 1,5-dimethyl-6-[2-methyl-4-(pyrrolo[2,1-f][1,2,4]triazin-4-yloxy)phenyl]pyrazin-2(1H)-one]
17 | 141 nM | Cc1ncnc(C)c1-c1ccc(Oc2ncnn3cccc23)cc1C#N [Example 38, 2-(4,6-dimethylpyrimidin-5-yl)-5-(pyrrolo[2,1-f][1,2,4]triazin-4-yloxy)benzonitrile]
18 | 183 nM | Cc1ncnc(C)c1-c1ccc(Oc2nccn3nccc23)cc1F [Example 17, 4-[4-(4,6-dimethylpyrimidin-5-yl)-3-fluorophenoxy]pyrazolo[1,5-a]pyrazine]
19 | 59 nM | Cc1ncnc(C#N)c1-c1ccc(Oc2nccn3cccc23)cc1F [Example 30, 5-[2-fluoro-4-(pyrrolo[1,2-a]pyrazin-1-yloxy)phenyl]-6-methylpyrimidine-4-carbonitrile]
20 | 13.1 nM | Cc1cc(Oc2nccn3cccc23)ccc1-c1c(C)cnnc1C (single isomer, unassigned) [Example 13, (+)-1-[4-(3,5-dimethylpyridazin-4-yl)-3-methylphenoxy]pyrrolo[1,2-a]pyrazine]

Row | Ki | Structure (SMILES)
21 | 49.4 nM | Cc1ncnc(C)c1-c1ccc(Oc2nccn3cccc23)c(F)c1 [Example 34, 1-[4-(4,6-dimethylpryimidin-5-yl)-2-fluorophenoxy]pyrrolo[1,2-a]pyrazine]
22 | 48.7 nM | Cc1ncnc(C)c1-c1ccc(Oc2ncnn3cccc23)cc1Cl [Example 36, 4-[3-chloro-4-(4,6-dimethylpyrimidin-5-yl)phenoxy]pyrrolo[2,1-f][1,2,4]triazine]
23 | 22.1 nM | Cc1cc(Oc2nccn3cccc23)ccc1-c1c(C)ncnc1C [Example 4, 1-[4-(4,6-dimethylpyrimidin-5-yl)-3-methylphenoxy]pyrrolo[1,2-a]pyrazine]
24 | 56.4 nM | Cc1cc(Oc2ncnn3cccc23)ccc1-c1c(C)ncnc1C [Example 5, 4-[4-(4,6-dimethylpyrimidin-5-yl)-3-methylphenoxy]pyrrolo[2,1-f][1,2,4]triazine]
25 | 34.7 nM | COc1cc(Oc2nccn3cccc23)ccc1-c1c(C)ncnc1C [Example 41, 1-[4-(4,6-dimethylpyrimidin-5-yl)-3-methoxyphenoxy]pyrrolo[1,2-a]pyrazine]
26 | 179 nM | Cc1ncnc(C)c1-c1ccc(Oc2nccn3cccc23)c(F)c1C [Example 31, 1-[4-(4,6-dimethylpyrimidin-5-yl)-2-fluoro-3-methylphenoxy]pyrrolo[1,2-a]pyrazine]
27 | 56.4 nM | COc1cc(Oc2nccn3cccc23)ccc1-c1cccnc1C [Example 25, 1-[3-methoxy-4-(2-methylpyridin-3-yl)phenoxy]pyrrolo[1,2-a]pyrazine]
28 | 894 nM | COc1cc(Oc2nccn3nccc23)ccc1-c1c(C)ncnc1C [Example 23, 4-[4-(4,6-dimethylpyrimidin-5-yl)-3-methoxyphenoxy]pyrazolo[1,5-a]pyrazine]
29 | 12.7 nM | Cc1ncnc(C)c1-c1ccc(Oc2nccn3cccc23)cc1Cl [Example 37, 1-[3-chloro-4-(4,6-dimethylpyrimidin-5-yl)phenoxy]pyrrolo[1,2-a]pyrazine]
30 | 31.5 nM | Cc1cc(Oc2nccn3cccc23)c(F)cc1-c1c(C)ncnc1C [Example 35, 1-[4-(4,6-dimethylpyrimidin-5-yl)-2-fluoro-5-methylphenoxy]pyrrolo[1,2-a]pyrazine]
31 | 7.3 nM | Cc1c(-c2ccc(Oc3nccn4cccc34)cc2)n(C)c(=O)[nH]c1=O [Example 15, 1,5-dimethyl-6-[4-(pyrrolo[1,2-a]pyrazin-1-yloxy)phenyl]pyrimidine-2,4(1H,3H)-dione]
32 | 102 nM | Cc1ncnc(C)c1-c1ccc(Oc2nccn3cccc23)cc1 [Example 21, 1-[4-(4,6-dimethylpyrimidin-5-yl)phenoxy]pyrrolo[1,2-a]pyrazine]
33 | 105 nM | Cc1cnnc(C)c1-c1ccc(Oc2ncnn3cccc23)cc1F [Example 22, 4-[4-(3,5-dimethylpyridazin-4-yl)-3-fluorophenoxy]pyrrolo[2,1-f][1,2,4]triazine]
34 | 96.3 nM | Cc1cc(Oc2nccn3cccc23)ccc1-c1c(C)cnnc1C (single isomer, unassigned) [Example 12, (−)-1-[4-(3,5-dimethylpyridazin-4-yl)-3-methylphenoxy]pyrrolo[1,2-a]pyrazine]
35 | 85.7 nM | Cc1ncnc(C)c1-c1cc(F)c(Oc2ncnn3cccc23)cc1F [Example 29, 4-[4-(4,6-dimethylpyrimidin-5-yl)-2,5-difluorophenoxy]pyrrolo[2,1-f][1,2,4]triazine]
36 | 1820 nM | Cc1ncnc(C)c1-c1ccc(Oc2nccn3nccc23)cc1C#N [Example 11, 2-(4,6-dimethylpyrimidin-5-yl)-5-(pyrazolo[1,5-a]pyrazin-4-yloxy)benzonitrile]
37 | 58.2 nM | Cc1ncnc(C)c1-c1ccc(Oc2ncnn3cccc23)cc1F [Example 16, 4-[4-(4,6-dimethylpyrimidin-5-yl)-3-fluorophenoxy]pyrrolo[2,1-f][1,2,4]triazine]
38 | 83.9 nM | COc1cc(Oc2ncnn3cccc23)ccc1-c1cccnc1C [Example 24, 4-[3-methoxy-4-(2-methylpyridin-3-yl)phenoxy]pyrrolo[2,1-f][1,2,4]triazine]
